Test results reported in patent US11116799B2, “Generation of uniform hepatocytes from human embryonic stem cells by inhibiting TGF-beta and methods of maintaining hepatic cultures” (Wisconsin Alumni Research Foundation, priority 2016, dated 2021).
Several values for one entry are separate records, joined by “and”; a condition that tells them apart may be missing. Identical values can stand only once. Entries after “also recorded” stand apart in the source; their conditions may differ.

Legend:
[1] = system: primary mouse hepatocytes; assay: RNA-Seq gene expression in primary mouse hepatocytes treated with kinase inhibitors; details: 10 μM, 72 hours
Source text: The next step was to determine if the PI3/Akt and MAPK pathways are involved in maintenance of hepatocyte maturation. We investigated whether small molecule inhibition of these pathways would mimic let-7's action and reduce the loss of mature function of hepatocytes in culture after removal from their microenvironment. […] Then, expression of the top ten important metabolic enzymes (CYPs, UGTs and transporters) by RNA-Seq with uncultured fresh hepatocytes and control vehicle hepatocytes treated for 72 hours was compared.
Hepatocytes from 6 black mice livers were isolated by perfusion following standard protocol and cultured on Matrigel coated plates in hepatocyte growth medium (Promocell). Whole developing livers from 6 black mice were used for RNA isolation with Trizol for let-7c measurements.
(§1) Total RNA (including microRNA) from all cells, which were not mentioned otherwise, were isolated using RNAeasy Plus Kit […] following manufacturers protocol. RNA-Seq was performed by LM-Seq (Illumina). MicroRNAs were sequenced using Illumina's small RNA sequencing kit. Expression of let-7 and U6 snoRNA were measured by quantitative PCR using ABI's kit. Let-7c expression levels were normalized by U6 snoRNA expression (RQ or relative quantity values, error bars representing standard error, RQ min and RQ max).
Multiple batches of cryopreserved induction qualified human hepatocytes (each batch being from one donor) were purchased from Life Technologies and cultured on Matrigel coated plates in hepatocyte growth medium (PromoCell). For dedifferentiation studies, hepatocytes from batches Hu4260, Hu8135, Hu4279 and Hu8137 were used after mixing equal number of live cells. For small molecule treatments, batch Hu4260 was used. Mouse hepatocytes were isolated from Black 6 mice livers by perfusion following standard protocol and cultured on Matrigel coated plates in hepatocyte growth medium (Promocell).
(§2) Total RNA were isolated using RNAeasy Plus Kit (Qiagen) following manufacturers protocol and qualified with the Life Technologies Qubit fluorometer and Agilent Bioanalyzer. […] Final indexed cDNA libraries were pooled and sequenced on an Illumina HiSeq 2500. Base-calling and demultiplexing were performed using Casava (v1.8.2). Sequences were filtered and trimmed to remove low quality reads, adapters, and other sequencing artifacts. The remaining reads were aligned to a reference database comprising only RefSeq-validated transcripts (i.e., assigned an “NM_” accession). Mouse samples were aligned to the mm10 assembly, and human samples were aligned to the hg19 assembly. […] Reads with more than 200 alignments were excluded from further analysis. […] All RNA-seq results have been deposited at NCBI's GEO under Accession No. GSE94353.
The inventors next investigated whether the MAPK and PI3/Akt pathways contributed to the dedifferentiation of hepatocytes. […] Rapamycin was included as a control, which is an inhibitor of the mTOR pathway, a serine/threonine kinase involved in cell signaling not identified as a key pathway in our analysis.

HepG2 cells [2] = system: HepG2 cells
Experimental: Both types of cells were treated with a vehicle or small molecule for 72 hours and genes were quantified using RNA-Seq.
as §1, §2
(§3) To test whether the upregulation of metabolic genes at the mRNA level translated into functional metabolic improvement, acetaminophen (APAP) metabolism was assessed by LC/MS/MS.

[3] = system: primary human hepatocytes (PHHs); assay: RNA-Seq gene expression in MAPK inhibitor treated primary human hepatocytes; format: cell-based
Experimental: […]. […] […].
For small RNA-Seq profiling, hepatocytes from Hu8082 were used; for de-differentiation time course and let-7c transduction, hepatocytes from Hu4260, Hu8135, Hu4279 and Hu8137 were used. For both experiments, cells from all 4 donors were mixed in equal numbers after assessment of viability. For small molecule treatments, batch Hu4260 was used.
RNA-Seq was performed by LM-Seq (Illumina).
For small molecule treatments, batch Hu4260 was used.
. To ascertain that the increase in metabolic enzymes took place through specific MAPK inhibition, PHHs were treated with a second MAPK inhibitor, PD0325901, for 72 hours, followed by RNA-Seq analysis (Supplementary Table 4). […].

CYP2C9 = details: HepG2, treated 72 hours
Experimental: (§4) CYP2C9 and 3A4 metabolism were measured using CYP450 Glo assay (Promega). In short, substrates were added to the media and incubated for 72 hours and the amount of metabolites generated were measured by adding the detection reagent and quantifying the luminescence in a Tecan® plate reader. Background was measured by incubating the substrates for 72 hours in the same media without cells. Cell counting for proliferation assay was carried out by dye exclusion in an automated cell counter (ThermoFisher).
CYP2C9 and 3A4 metabolism were measured using CYP450 Glo assay (Promega). Substrates were added to the media and incubated for 72 hours and the amount of metabolite generated were measured by adding the detection reagent and quantifying the luminescence in a Tecan plate reader. Background was measured by incubating the substrates for 72 hours in the same media without cells.

HepG2 cells [4] = assay: HepG2 viability / cell growth (cell counting by dye exclusion); format: cell-based, human; details: HepG2, 72 hours, compared to vehicle control
Experimental: as §4

HepG2 cells [5] = details: HepG2 treated 72 hours, 10 uM APAP for 1 hour
Source text: Samples for LC/MS/MS analysis were processed by solid-phase extraction, and calibrant curves (7 points) for all compounds were generated by spiking standards (Sigma) in E6 media and processed in parallel with samples. An internal standard of deuterated naproxen was included for all analytes. Samples were run on a 0.2×100 mm Cortecs C18 column (Waters Corporation, Milford Mass.) using a Waters Acquity UPLC system coupled to an AB/Sciex Q-Trap 5500 hybrid triple quadrupole instrument (Framingham Mass.). Analytes were detected using multiple-reaction-monitoring with three transitions for each compound being monitored. Each sample was analyzed in triplicate with blanks between each sample analysis. Quantitation was based on area under the curve of the analyte relative to the internal standard and was modeled with a quadratic fit with 1/× weighting using the MultiQuant software (Sciex, Framingham Mass.). […] Average calculated concentrations for each analyte are reported. […] Background was determined by measuring metabolites in media incubated with acetaminophen only for 1 hour and any samples below background were considered nil.
as §3

[6] = system: ALB-GFP/tdTomato-AFP marker cell line; details: marker line differentiated with TGFB and NOTCH inhibition in E6, then treated 72 hours
Source text: We next differentiated the ALB-GFP/tdTomato-AFP marker cell line to hepatocytes with TGFB and NOTCH inhibition in defined E6 medium.

[7] = primary human hepatocytes, treated 72 hours

N#CC(=C(/N)Sc1ccccc1N)/C(C#N)=C(\N)Sc1ccccc1N [U0126]
ABCC2 gene expression [1]: 415.86 transcripts per million
CYP1A2 gene expression [1]: 1271.98 transcripts per million
CYP2C9 gene expression [1]: 2676.68 transcripts per million
CYP2E1 gene expression [1]: 217.96 transcripts per million
CYP3A11 gene expression [1]: 632.32 transcripts per million
CYP3A25 gene expression [1]: 112.18 transcripts per million
UGT1A6A gene expression [1]: 232.80 transcripts per million
UGT1A9 gene expression [1]: 184.63 transcripts per million
UGT1A10 gene expression [1]: 2.44 transcripts per million
UGT2B5 gene expression [1]: 995.27 transcripts per million
downregulation of fetal gene AFP compared with untreated control (HepG2 cells [2]; HepG2, 72 hours): over 3 orders of magnitude
AFP gene expression (HepG2 cells [2]; HepG2, treated 72 hours): 4.74 transcripts per million
ALB gene expression (HepG2 cells [2]; HepG2, treated 72 hours): 2083.6 transcripts per million
CD81 gene expression (HepG2 cells [2]; HepG2, treated 72 hours): 634.68 transcripts per million
CYP1A2 gene expression (HepG2 cells [2]; HepG2, treated 72 hours): 0.68 transcripts per million
CYP1B1 gene expression (HepG2 cells [2]; HepG2, treated 72 hours): 3.07 transcripts per million
CYP2C9 gene expression (HepG2 cells [2]; HepG2, treated 72 hours): 33.45 transcripts per million
CYP2D6 gene expression (HepG2 cells [2]; HepG2, treated 72 hours): 4.05 transcripts per million
CYP2E1 gene expression (HepG2 cells [2]; HepG2, treated 72 hours): 14.61 transcripts per million
CYP3A4 gene expression (HepG2 cells [2]; HepG2, treated 72 hours): 13.37 transcripts per million
SLC10A1 gene expression (HepG2 cells [2]; HepG2, treated 72 hours): 10.57 transcripts per million
SLCO1B1 gene expression (HepG2 cells [2]; HepG2, treated 72 hours): 120.17 transcripts per million
SLCO1B3 gene expression (HepG2 cells [2]; HepG2, treated 72 hours): 18.83 transcripts per million
UGT1A1 gene expression (HepG2 cells [2]; HepG2, treated 72 hours): 16.61 transcripts per million
UGT1A6 gene expression (HepG2 cells [2]; HepG2, treated 72 hours): 835.05 transcripts per million
UGT1A9 gene expression (HepG2 cells [2]; HepG2, treated 72 hours): 99.71 transcripts per million
expression of hepatic nuclear receptors (CAR, FXR, LXR, PPAR, PXR, RAR), change >3-fold (HepG2 cells [2]; HepG2 cells): did not significantly change
expression of hepatic nuclear receptors (CAR, FXR, LXR, PPAR, PXR, RAR), change >3-fold ([3]; PHHs): did not significantly change
AFP gene expression [3, 7]: 5.79 transcripts per million
ALB gene expression [3, 7]: 1360.25 transcripts per million
CD81 gene expression [3, 7]: 417.56 transcripts per million
CYP1A2 gene expression [3, 7]: 68.21 transcripts per million
CYP1B1 gene expression [3, 7]: 30.96 transcripts per million
CYP2C9 gene expression [3, 7]: 77.04 transcripts per million
CYP2D6 gene expression [3, 7]: 1.81 transcripts per million
CYP2E1 gene expression [3, 7]: 17.69 transcripts per million
CYP3A4 gene expression [3, 7]: 43.64 transcripts per million
SLC10A1 gene expression [3, 7]: 0.00 transcripts per million
SLCO1B1 gene expression [3, 7]: 153.15 transcripts per million
SLCO1B3 gene expression [3, 7]: 14.65 transcripts per million
UGT1A1 gene expression [3, 7]: 47.57 transcripts per million
UGT1A6 gene expression [3, 7]: 671.53 transcripts per million
UGT1A9 gene expression [3, 7]: 81.41 transcripts per million
CYP2C9 activity (luminescent metabolite formation), increase over vehicle control (CYP2C9): > 10 fold and 10 fold
HepG2 viability / cell growth (HepG2 cells [4]): significant inhibition of cell growth; also recorded: increased cell death and growth arrest
formation of APAP-glucuronide (HepG2 cells [5]): induced the formation
formation of APAP-glutathione (HepG2 cells [5]): induced the formation
formation of APAP-sulphate (HepG2 cells [5]): increased formation
rate of formation of all APAP metabolites versus PHHs (HepG2 cells [5]): comparable rate to mature adult PHHs
cells expressing both ALB and AFP [6]: 100%
